Measured values from patent US5004735A, “Pharmaceutical compositions for the inhibition of tumor metastasis” (Nisshin Flour Milling Co., Ltd., priority 1988, dated 1991).

Assays:
B16-F10 melanoma cells = test: L-PHA-sensitivity of cultured tumor cells (Example 4); format: cell-based; details: Mus musculus, 10 μl of 50 μg/ml test compound in DMSO added on day 1 to 2 ml medium, L-PHA 50 μl of 50 μg/ml on day 2, count day 4, control 42.0, read-out: Growth inhibition by L-PHA
Experimental: Tumor cell culture: B16-F10 melanoma cells were incubated in RPMI 1640 medium containing 10% fetal bovine serum and antibiotics at 37° C.
Test method: B16-F10 cells (5×10^4) in 2 ml of the medium were seeded onto a plastic dish and incubation was started. On day 1, 10 μl of dimethylsulfoxide (control group) or a test compound suspended in 10 μl of dimethylsulfoxide at a concentration of 50 μg/ml (test group) was added. On day 2, 50 μl each of water was added to a half of each of the control group and the test group, and 50 μl of 50 μg/ml L-PHA solution in water was added to a remaining half. On day 4, the number of cells was counted in L-PHA-treated and untreated groups and % growth inhibition by L-PHA was calculated according to the following formula:
% Growth Inhibition=(1-N/N0)×100
in which N denotes a number of cells in the presence of L-PHA and N0 denotes a number of cells in the absence thereof.

B16-F10 melanoma [1] = test: Inhibition of lung metastasis of B16-F10 melanoma in mice, intraperitoneal olive oil solution (Example 3); format: in vivo, male C57BL/6 mice
Experimental: (§1) Experimental animal: male C57BL/6 mice (6 weeks old)
(§2) Tumor cell line: B16-F10 melanoma
Compounds B, D, E and F were tested for the inhibitory effect on tumor metastasis using the same experimental animal and tumor cell line as in Example 1. Test method: Mice were given 4×10^5 B16-F10 melanoma cells in 0.05 ml of serum-free RPMI 1640 medium in the foot pad of the left hind leg. A solution of Compounds B, D, E or F (0.1 or 0.2 mg) in 0.2 ml of olive oil was administered intraperitoneally every other day from day 1 to day 27 after inoculation of the melanoma cells. During this period, the size of the inoculated tumors was observed macroscopically. On day 28, the tumor-bearing legs were cut from the mice and on day 42 the mice were sacrificed. The number of metastatic nodules formed on the lung surface was counted for each mouse. 10 Animals were used per each group except for control group wherein 20 animals were used.

B16-F10 melanoma [2] = test: Inhibition of tumor metastasis to lung by intravenous oily emulsions (Example 8); format: in vivo, male C57BL/6 mice; details: oily emulsion i.v., 9 times every three days
Experimental: Male C57BL/6 mice (6 weeks old) were given 4×10^5 B16-F10 melanoma cells in 0.05 ml of serum-free RPMI 1640 medium in the foot pad of the left hind leg. […] The tumor-bearing legs were cut on day 27 and the mice were sacrificed on day 41. The number of metastatic nodules formed in the lung was counted for each mouse. 10 Animals were used per each group. % Inhibition of tumor metastasis to lung was calculated on the basis of the following formula.
% Inhibition of tumor metastasis to lung=(1-M/M0)×100

B16-F10 melanoma [3] = test: Inhibition of lung metastasis of B16-F10 melanoma in mice, intraperitoneal suspension (Examples 1 and 2); format: in vivo, male C57BL/6 mice; details: for Number of metastatic nodules mean ± standard error / Inhibition of metastasis: day 1 to 27, day 42; for Number of metastatic nodules mean ± standard error: lung surface; for Inhibition of metastasis: lung
Experimental: as §1, §2
Test method: Mice were given 4×10^5 B16-F10 melanoma cells in 0.05 ml of serum-free RPMI 1640 medium in the foot pad of the left hind leg. […] During this period, the size of the inoculated tumor was observed macroscopically. On day 28, tumor-bearing legs were cut from the mice and on day 42 the mice were sacrificed. The number of metastatic nodules formed on the lung surface was counted for each mouse. 10 Animals were used per each group
Compounds G and H were tested for the inhibitory effect on tumor metastasis.

Compound	inhibition at 50 µg/mL (stock) (B16-F10 melanoma cells)	Growth of the inoculated tumors (in words) (B16-F10 melanoma [1]; 10 mg/Kg i.p., compared with Control)	Number of metastatic nodules mean ± standard error (B16-F10 melanoma [1]; 10 mg/kg i.p. in olive oil every other day, day 1 to 27, lung surface, day 42)	Inhibition of metastasis (B16-F10 melanoma [1]; 10 mg/kg i.p. in olive oil every other day, day 1 to 27, lung, day 42)	Inhibition of tumor metastasis to lung (B16-F10 melanoma [2]; 0.8 mg/kg)	Number of metastatic nodules mean ± standard error (B16-F10 melanoma [3]; 5 mg/kg i.p. every other day)	Inhibition of metastasis (B16-F10 melanoma [3]; 5 mg/kg i.p. every other day)	Number of metastatic nodules mean ± standard error (B16-F10 melanoma [3]; 10 mg/kg i.p. every other day)	Inhibition of metastasis (B16-F10 melanoma [3]; 10 mg/kg i.p. every other day)	Inhibition of tumor metastasis to lung (B16-F10 melanoma [2]; 0.3 mg/kg)	Inhibition of tumor metastasis to lung (B16-F10 melanoma [2]; 2.0 mg/kg)	Inhibitory effect on tumor metastasis (in words) (B16-F10 melanoma [3]; Example 2, i.p. suspension, same method as Example 1)
CC(C)=CCC/C(C)=C/CC/C(C)=C/CC/C(C)=C/CC/C(C)=C/CC/C(C)=C/CC/C(C)=C/CC/C(C)=C/CC/C(C)=C/CCC(C)CCO (centres unmarked) [Compound B]	36.6%	about the same as that of Control	11.7 ± 6.2	63%	54%							
CC(C)=CCC/C(C)=C/CC/C(C)=C/CC/C(C)=C/CC/C(C)=C/CC/C(C)=C/CC/C(C)=C/CC/C(C)=C/CC/C(C)=C/CCC(C)CCOP(=O)(O)O (centres unmarked) [Compound C]	32.7%				78%	1.2 ± 0.8	94%	0	100%	79%	85%	
CC(C)=CCC/C(C)=C/CC/C(C)=C/CC/C(C)=C/CC/C(C)=C/CC/C(C)=C/CC/C(C)=C/CC/C(C)=C/CC/C(C)=C/CCC(C)CCOP(=O)(O)O (centres unmarked) [Compound G]												essentially the same as that of Compound C
